Tested on: peptidylglycine α-amidating monooxygenase (PAM)
Experiment: PAM treatment of hippurate: benzamide by HPLC, glyoxylate by malate synthase/malate dehydrogenase/MTS/PMS system
Assay type: biochemical
Conditions: PAM added to hippurate
Experimental: Spectrophotometric enzyme-linked assays for glyoxylate were initiated by the addition of malate synthase and malate dehydrogenase. […] The absorbance at 490 nm was measured after one hour incubation at 37° C. in the dark. The small amount of MTS reduced for the zero glyoxylate control was subtracted from that obtained in the presence of glyoxylate. Hippurate (N-benzoylglycine, C6H5—CO—NH—CH2—COO^−) is a PAM substrate that is oxidatively converted to benzamide and glyoxylate. […] At 10 min intervals over a period of 110 minutes, 45 μl aliquots were removed and added to 10 μl of 6% (v/v) trifluoroacetic acid to terminate the reaction. Percent conversion of hippurate to benzamide was determined at each time interval by reverse-phase HPLC. […] Following ascorbate removal the addition of 100 ul enzyme couple and PMS/MTS brought the assay to a final volume of 1 ml which contained 100 mM TEA-HCl pH 7.8, 10 mM MgCl2, 400 μM acetyl-CoA, 500 μM NAD^+, 6 U/ml malate synthase, 6 U/ml malate dehydrogenase, and 12 units ascorbate oxidase. […] A control for this experiment was performed at each time point, and contained no hippurate.

For `O=C(O)CNC(=O)c1ccccc1` [Hippurate, N-benzoylglycine], the “Benzamide Produced” value (Time 40) was 0.58 mM, the “Glyoxylate Produced” value (Time 40) was 0.69 mM and the “Benzamide Produced” value (Time 50) was 0.70 mM. The “Glyoxylate Produced” value (Time 50) was 0.67 mM, the “Benzamide Produced” value (Time 60) was 0.80 mM and the “Glyoxylate Produced” value (Time 60) was 0.71 mM. For the same compound, the “Benzamide Produced” value (Time 70) was 0.90 mM, the “Glyoxylate Produced” value (Time 70) was 0.75 mM and the “Benzamide Produced” value (Time 80) was 0.98 mM. For the same compound, the “Glyoxylate Produced” value (Time 80) was 0.77 mM, the “Benzamide Produced” value (Time 90) was 1.1 mM and the “Glyoxylate Produced” value (Time 90) was 1.3 mM. For the same compound, the “Benzamide Produced” value (Time 100) was 1.2 mM, the “Glyoxylate Produced” value (Time 100) was 1.3 mM and the “Benzamide Produced” value (Time 110) was 1.3 mM. The “Glyoxylate Produced” value (Time 110) was 1.3 mM.
